Patent US6809092B2, “Benezene-fused heteroring derivatives and pharmaceutical agents comprising the same as active ingredient” (Ono Pharmaceutical Co., Ltd., priority 2000, dated 2004)

Assays:
Assay type in all cases: biochemical
cathepsin L = cathepsin L (Homo sapiens, UniProt P07711); test: Measurement of cathepsin L inhibitory activity
Protocol: (iv) Measurement of Cathepsin L Inhibitory Activity
5 μL of Synthesized substrate (carbobenzoxy-L-phenylalanyl-L-arguine-4-methyl-chromanyl-7-amide or L-prolyl-L-phenylalanyl-L-arguinine-4-methyl-chromanyl-7-amide) solution and 5 μL of cysteine protease inhibitor solution of several concentrations, 80 μL of cathepsin L enzyme reaction buffer (400 mmol/L acetic acid, 4 mmol/L EDTA, 8 mmol/L DTT were mixed to adjust to pH 5.5) and 10 μL of cathepsin L enzyme solution were mixed and the increase of fluorescence intensity was measured (λ ex (excitation wavelength)=355 nm, λ em (fluorescence wavelength)=460 nm) when reacted at 37° C.
For example, the inhibitory activity of the compound of example 22(4) was 97% at 1 μM.

cathepsin S = cathepsin S (Homo sapiens, UniProt P25774); test: Measurement of cathepsin S inhibitory activity
Protocol: (iii) Measurement of Cathepsin S Inhibitory Activity
10 μL of synthesized substrate (carbobenzoxy-L-leucyl-L-leucyl-L-arguinine-4-methyl-chromanyl-7-amide) solution and 5 μL of cysteine protease inhibitor solution of several concentrations, 75 μL of cathepsin S enzyme reaction buffer (100 mmol/L of sodium phosphate, 2 mmol/L of EDTA, 2 mmol/L of DTT were mixed to adjust to pH 6.5) and 10 μL of cathepsin S enzyme solution were mixed and the increase of fluorescence intensity was measured (λ ex(excitation wavelength)=355 nm, λ em (fluorescence wavelength)=460 nm) when reacted at 37° C.
It was confirmed that the compound of the present invention of formula (I) has an inhibitory effect more than 50% at 10 μM. For example, the inhibitory activity of the compound of example 18 was 98% at 1 μM.

cathepsin K = target: T1, cathepsin K (Homo sapiens, UniProt P43235); test: Measurement of cathepsin K inhibitory activity; details: Dixon plot, pH 5.5, 37° C.
T1 sequence (P43235 115-329): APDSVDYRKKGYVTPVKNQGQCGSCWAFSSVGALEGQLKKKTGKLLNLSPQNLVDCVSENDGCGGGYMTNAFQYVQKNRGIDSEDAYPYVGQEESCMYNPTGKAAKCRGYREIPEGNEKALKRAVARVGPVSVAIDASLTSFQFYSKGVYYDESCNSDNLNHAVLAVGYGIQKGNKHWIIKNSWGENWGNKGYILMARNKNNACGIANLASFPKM
Protocol: (i) Measurement of Cathepsin K Inhibitory Activity
65 μL of Cathepsin K enzyme reaction buffer (50 mmol/L of 2-(N-morpholino)ethanesulfonate, 2 mmol/L of ethylenediamine tetraacetate (EDTA) and 4 mmol/L of dithiothreitol (DTT) were mixed to adjust to pH 5.5), 5 μL of cysteine protease inhibitor solution of several concentrations, 20 μL of synthesized substrate (t-butyloxycarbonyl-L-alanyl-glycyl-L-prolyl-L-arginine-4-methyl-chromanyl-7-amide) solution of several concentrations and 10 μL of cathepsin K enzyme solution were mixed and the increase of fluorescence intensity when reacted at 37° C. was measured (λ ex (excitation wavelength)=355 nm, λ em (fluorescence wavelength)=460 nm). As to the substrate and the compound of the present invention, enzyme reactions were carried out in combination of several appropriate concentrations and Dixon plotting was prepared, to define the absolute value of X-coordinate of the intersection point of the graph as Ki value.

cathepsin B = cathepsin B (Homo sapiens, UniProt P07858); test: Measurement of cathepsin B inhibitory activity
Protocol: (ii) Measurement of Cathepsin B Inhibitory Activity
10 μL of Synthesized substrate (carbobenzoxy-L-arginyl-L-arginine-4-methyl-chromanyl-7-amide or carbobenzoxy-L-phenylalanyl-L-arginine-4-methyl-chromanyl-7-amide) solution of several concentrations, 10 μL of cysteine protease inhibitor solution of several concentrations, 70 μL of cathepsin B enzyme reaction buffer (mixture of 400 mmol/L in acetic acid, 4 mmol/L EDTA, 8 mmol/L DDT to adjust to pH 5.5) and 10 μL of cathepsin B enzyme solution were mixed and the increase of fluorescence intensity was measured (λ ex (excitation wavelength)=355 nm, μ em (fluorescence wavelength)=460 nm) when reacted at 37° C.
For example, the inhibitory activity of the compound of example 10 was 95% at 1 μM.

Sequence of cathepsin L (P07711 114-333, species assumed): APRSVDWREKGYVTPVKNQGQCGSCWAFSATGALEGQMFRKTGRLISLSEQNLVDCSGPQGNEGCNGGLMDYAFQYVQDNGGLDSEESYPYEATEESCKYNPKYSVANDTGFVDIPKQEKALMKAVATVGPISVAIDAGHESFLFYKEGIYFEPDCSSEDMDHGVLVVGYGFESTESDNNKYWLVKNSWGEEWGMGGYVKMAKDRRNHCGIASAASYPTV
Sequence of cathepsin S (P25774 115-331, species assumed): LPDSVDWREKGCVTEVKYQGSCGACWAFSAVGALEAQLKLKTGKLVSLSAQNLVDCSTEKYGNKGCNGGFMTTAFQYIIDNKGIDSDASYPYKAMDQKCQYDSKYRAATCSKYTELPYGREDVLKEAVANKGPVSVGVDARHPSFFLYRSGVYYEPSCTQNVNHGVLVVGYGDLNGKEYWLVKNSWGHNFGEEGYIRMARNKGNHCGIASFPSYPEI

| Ki (cathepsin K) [nM] | Structure (SMILES) | further results |
| --- | --- | --- |
|  | CC(C)C[C@H](NC(=O)[C@H](CC(C)C)NC(=O)OCc1ccccc1)C(=O)CN1CCN(C(C)C)c2ccccc2C1 [example 22(4), (2S)-N-[(3S)-5-methyl-1-(1-isopropyl-2,3,4,5-tetrahydro-1H-1,4-benzodiazepin-4-yl)-2-oxo-3-hexyl]-2-benzyloxycarbonyl amino-4-methylpentanamide] | inhibition at 1 µM (cathepsin L): 97% |
|  | CC(C)CC(NC(=O)[C@H](CC(C)C)NC(=O)OCc1ccccc1)C(=O)CN1CCCc2cc(O)ccc2C1 (stereo partly drawn) [example 18] | inhibition at 1 µM (cathepsin S): 98% |
| 170 | CC(C)C[C@H](NC(=O)[C@@H]1CCCC[C@@H]1NC(=O)c1ccccc1)C(=O)CN1CCCc2ccccc2C1 [example 3] |  |
| 81 | CC(C)C[C@H](NC(=O)[C@H](CC(C)C)NC(=O)OCc1ccccc1)C(=O)CN1CCSc2ccccc2C1 [example 31, (2S)-N-[(3S)-5-methyl-2-oxo-1-(2,3,4,5-tetrahydro-1,4-benzothiazepin-4-yl)-3-hexyl]-2-benzyloxycarbonylamino-4-methylpentanamide] |  |
|  | CC(C)C[C@H](NC(=O)[C@@H]1CCCC[C@@H]1NC(=O)c1ccccc1)C(=O)CN1CCCCc2ccccc21 [example 10] | inhibition at 1 µM (cathepsin B): 95% |
| 100 | CC(C)C[C@H](NC(=O)[C@H](CC(C)C)NC(=O)OCc1ccccc1)C(=O)CN1CCCc2ccccc2C1 [3(14), (2S)-N-[(3S)-5-methyl-2-oxo-1-(1,3,4,5-tetrahydro-2H-2-benzazepin-2-yl)-3-hexyl]-4-methyl-2-benzyloxycarbonylamino pentanamide] |  |
